Common to all, as to assay: DTP human tumour cell line panel, 48 h
Experiment [1] relates to ACHN.
Experiment [2] concerns CCRF-CEM.
Experiment [3] concerns HCT-116.
Experiment [4] concerns HOP-62.
The test system of experiment [5] is LOX IMVI.
The subject of experiment [6] is M14.
Experiment [7] relates to MDA-MB-231.
Experiment [8] deals with MOLT-4.
The test system of experiment [9] is Malme-3M.
Experiment [10] concerns NCI-H226.
The subject of experiment [11] is OVCAR-3.
The subject of experiment [12] is OVCAR-4.
The test system of experiment [13] is OVCAR-8.
The test system of experiment [14] is SK-OV-3.
The subject of experiment [15] is SNB-19.
Experiment [16] concerns SR.
Experiment [17] concerns SW-620.
Experiment [18] concerns T47D.
Experiment [19] relates to UACC-257.
For experiment [20], the system named is UACC-62.

SMILES strings stand for the structures.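 Values below derive from 48-hour exposures of cells grown in 96-well plates, with endpoints linearly interpolated between the two concentrations bracketing the appropriate inhibition level. GI50 marks 50% less growth.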 Active and inactive are the calls of the source. No stated cut-off is given here; in the data, active = GI50 up to about 1.1 µM and inactive = higher.

In general, GI50 refers to the concentration giving 50% growth inhibition.

For the compound `Cc1cccc2c1C(=O)C1(Cc3ccccc3C1=O)C2` (stereo not given), the GI50 in [1], in experiment [2], in experiment [3], in experiment [4], in experiment [5] and in experiment [6] was > 100 µM (inactive) each time. Moreover, the GI50 is > 100 µM (inactive) in [7]; 91.2 µM (inactive) in experiment [8]; > 100 µM (inactive) in experiment [9]; > 100 µM (inactive) in experiment [10]; > 100 µM (inactive) in [11]; > 100 µM (inactive) in [12]. Also, the GI50 in [13] was > 100 µM (inactive); in experiment [14] it was > 100 µM (inactive); in [15], > 100 µM (inactive); in experiment [16] it was > 100 µM (inactive); in [17], > 100 µM (inactive); in experiment [18], 52.8 µM (inactive). In addition, the GI50 in experiment [19] is > 100 µM (inactive); in experiment [20], 84.7 µM (inactive).

`CCCCC[C@@H]1OCO[C@@]2(C)/C=C(C)\C=C/C(=O)O[C@H]([C@@H](C)[C@@H](O)[C@H](C)[C@@]3(O)C[C@@H](O[C@H]4C[C@@H](O)[C@H](O)[C@@H](C)O4)[C@H](C)[C@@H](C)O3)[C@@H](OC)/C=C\C=C(\C)C[C@@H]1[C@@H]2O` (stereo in doubt): the GI50 in experiment [1] was < 0.005 µM (active); in experiment [2], < 0.005 µM (active); in experiment [3] it was < 0.005 µM (active); in experiment [4], 0.0573 µM (active); in [5] it was < 0.005 µM (active); in [6], < 0.005 µM (active). The GI50 in experiment [7] was 0.0239 µM (active); in [8], < 0.005 µM (active); in experiment [9], < 0.005 µM (active); in experiment [10] it was < 0.005 µM (active); in experiment [11] it was < 0.005 µM (active); in experiment [12], < 0.005 µM (active). In addition, the GI50 in [13] is < 0.005 µM (active); in [14], 1.35 µM (inactive); in [15], 0.0995 µM (active); in experiment [16], < 0.005 µM (active); in experiment [17], < 0.005 µM (active); in experiment [18] it was < 0.005 µM (active). Besides, the GI50 in [19] and in experiment [20] was < 0.005 µM (active) throughout.

For `O=c1[nH]c2cc(Cl)ccc2nc1/C(=N/Nc1ccccc1)C(O)c1ccco1` (stereo not given), the GI50 in [1], in experiment [2], in experiment [3], in experiment [4], in experiment [5] and in experiment [6] was > 100 µM (inactive) in each case. Also, the GI50 in experiment [7], in [8], in experiment [9], in experiment [10], in [11] and in experiment [12] was > 100 µM (inactive) each time. Besides, the GI50 in experiment [13], in [14], in [15], in experiment [16], in experiment [17] and in experiment [18] was > 100 µM (inactive) each time. Moreover, the GI50 in experiment [19] and in experiment [20] was > 100 µM (inactive) in each case.

As to `CCOC(=O)C(NNS(=O)(=O)c1ccc(C)cc1)S(=O)(=O)C(F)(F)C(F)(F)C(F)(F)C(F)(F)F` (stereo not given), the GI50 is > 100 µM (inactive) in experiment [1]; > 10 µM (inactive) in [2]; 64 µM (inactive) in experiment [3]; > 100 µM (inactive) in [4]; > 100 µM (inactive) in [5]; > 100 µM (inactive) in [6]. In addition, the GI50 in experiment [7] is > 100 µM (inactive); in [8] it was 81.8 µM (inactive); in experiment [9], > 100 µM (inactive); in [10] it was > 100 µM (inactive); in [11], > 100 µM (inactive); in experiment [12], > 100 µM (inactive). Besides, the GI50 in [13], in [14], in experiment [15], in experiment [16], in experiment [17] and in experiment [18] was > 100 µM (inactive) throughout. The GI50 in experiment [19] and in experiment [20] was > 100 µM (inactive) in each case.

Values taken from ChEMBL document CHEMBL1201862, “PubChem BioAssay data set” (2004).
